Results taken from patent publication US20150329878A1, “FERMENTATIVE PRODUCTION OF A HYDROCARBON” (GLOBAL BIOENERGIES, priority 2012, published 2015).
Like-named read-outs stand apart in the source and are kept apart here.

How the values were obtained:
[1] = in the presence of CO2 and N2 mixtures; cited from earlier work
[2] = cited from earlier work
[3] = test system: Escherichia coli, strain MG1655; assay: Effect of high partial pressure of carbon dioxide on growth and metabolism of E. coli cultured on glucose (batch fermenters); format: cell-based; conditions: pCO2~800 mbar
Method: Escherichia coli, strain MG1655 (ATCC Number 700926; American Type Culture Collection (ATCC), Manassas, Va.), was grown in batch mode in 1.4 L Multifors fermenters (Infors A G, Basel, Switzerland) equipped with temperature, pH and dO (dissolved oxygen) control. Initially, the fermenters contained in 1 L total volume: KH2PO4, 7.5 g/L; MgSO4.7H2O, 2.0 g/L; citric acid, 1.83 g/L; ferric ammonium citrate, 0.3 g/L; CaCl2.2H2O, 0.2 g/L; sulfuric acid (98%), 1.2 mL/L; yeast extract, 5 g/L; and glucose (10 g/L). After sterilization, 10 mL of a trace metal mixture and 1 mL of a thiamine solution (150 mM) was added and the medium was adjusted to the desired pH (see below) with 3 M NaOH. The trace metal mixture contained: MnSO4.H2O, 3 g/L; NaCl, 1 g/L; FeSO4.7H2O, 0.1 g/L; CoCl2.6H2O, 0.1 g/L; ZnSO4.7H2O, 0.1 g/L; CuSO4.5H2O, 0.0064 g/L; H3BO3, 0.01 g/L; and Na2MoO4.2H2O, 0.01 g/L. In one set of three fermenters, gas flow (air) was fixed at 0.5 VVM (volume per volume per minute) and pH was automatically maintained at pH 6.2, pH 6.5 and 6.8 with the addition of 3 M NaOH. […]
After equilibration with the gases, evident by the cessation of NaOH addition, the fermenters were inoculated at an initial OD600 of approximately 0.4 absorbance units (AU). […]

microbial growth = conditions: pCO2~300 mbar; Baez A et al. 2009; cited from earlier work

Structure (SMILES)	flammable minimum oxygen concentration (MOC) value [1]	solubility in water ([2]; at 1 bar and 20° C.)	solubility in water ([2]; at 1 bar and 25° C.)	effect on growth rate of E. coli [3]	effect on microbial growth (microbial growth)
C=CC [propylene]	about 13%				
C=CC=C [1,3-butadiene]	about 10.5%	about 735 ppm			
C=C(C)C [isobutene]	about 13%	about 260 ppm			
C=CC(=C)C [isoprene]	about 9.7%		about 642 ppm		
O=C=O [carbon dioxide]				only slight impairments of growth rate	significantly inhibit microbial growth
